Patent EP4782431A1 (Suzhou Merna Therapeutics Co. Ltd, priority 2023, dated 2025)

Experiments:
[1] = system: rat models with a hand-foot skin reaction; assay: rat models with a hand-foot skin reaction; type: in vivo, SD rats
Protocol: After adaptive feeding for one week, SD rats (with a body weight of approximately 200 g) were randomly divided into groups with balanced body weight, with 12 rats in each group. Modeling drugs (including sorafenib, erlotinib, afatinib, and osimertinib) were respectively dissolved in a solution containing 5% of DMSO, 45% of PEG400, and 50% of H2O, and the modeling drugs were diluted to required concentrations and then administered once daily by gavage at doses shown in Table 3. After administration by gavage for 1 hour, 0.05 g of ointments containing different mass proportions of test compounds were evenly applied to left paws of the rats, a blank matrix ointment was applied to right paws of the rats to serve as a self-control, and no ointment was applied to the rats in a blank control group. After drug application, four limbs were continuously immobilized for 2 hours, then wiped with clean water to remove the residual drugs, removed from immobilization, and restored to free movement. The modeling drugs, the blank matrix ointment, and the ointments containing the test compounds were all administered once daily. After continuous administration for 30 days, the rats were euthanized, and paw plantar skin tissues were collected, fixed in 10% neutral formalin, […]. The ointments for the test compounds were prepared by mixing the compounds, white beeswax, white petrolatum, and light liquid paraffin in specific ratios (weight ratios of 3 ointments were respectively 1:18:58:23, 3:18:57:22, and 10:20:40:30). The blank matrix ointment was prepared by mixing white beeswax, white petrolatum, and light liquid paraffin in a specific ratio (weight ratio of 18:60:22).
Tissue staining: After dewaxing and rehydration, the paw plantar skin tissue sections of the above rats were stained in a hematoxylin solution for several minutes, cleaned, and placed in 1% acid alcohol for soaking until the sections faded to light blue-red. After cleaning with running water for 5 minutes, the sections were stained with eosin for 2-3 minutes, cleaned to remove excess dyes, dehydrated, then permeabilized by adding xylene for several minutes, and sealed and fixed with a neutral resin. The stratum corneum was observed under an optical microscope, and the thickness of the epidermal stratum corneum was measured using Dmetrix software.
Immunohistochemical staining: After dewaxing and hydration, the paw plantar skin tissue sections of the above rats were incubated with 3% H2O2 at room temperature for 30 minutes and blocked with 10% goat serum for 30 minutes after antigen retrieval. A KRT1 antibody (Abcam, ab93652) and a Loricrin antibody (Abcam, ab183646) were added dropwise, the sections were incubated overnight at 4°C, and an HRP secondary antibody (ZSGB-BIO, PV-6001) and a DAB kit (ZSG-BIO, ZLI9017) were added for color development. The sections were re-stained with hematoxylin, cleaned, and sealed and fixed with a neutral resin, and the expression amounts of KRT1 and Loricrin were observed under an optical microscope.
An incidence rate calculation method involves a proportion of animals in each group meeting the above criteria for determining successful modeling, that is, incidence rate = (number of successfully modeled rats/total number of rats in the group)*100%. […]

[2] = system: kinase inhibitor-induced mouse model with hand-foot skin reaction; assay: kinase inhibitor-induced mouse model with hand-foot skin reaction; type: in vivo, ICR mice; conditions: for expression level of cytokine IL-1β in the skin tissues of the hind limb toes of the mice / infiltration of inflammatory cells / thickening of the epidermal layer and the stratum corneum in the skin tissues: 3% ointment topical or nicotinamide 100 mg/kg oral; for infiltration of inflammatory cells / thickening of the epidermal layer and the stratum corneum in the skin tissues / swelling of the toes caused by the modeling drugs: sorafenib and osimertinib models; for swelling of the toes caused by the modeling drugs: compound of formula (I) 3% ointment topical or nicotinamide 100 mg/kg oral, once daily 16 days
Text: After adaptive feeding for 7 days, SPF-grade ICR mice (male, 5-6 weeks old, with a body weight of approximately 35 g) were randomly divided into groups, including a blank control group (6 mice), a sorafenib modeling group (6 mice), an osimertinib modeling group (6 mice), a sorafenib + compound of formula (I) group (6 mice), an osimertinib + compound of formula (I) group (6 mice), a sorafenib + nicotinamide group (6 mice), and an osimertinib + nicotinamide group (6 mice). The groups were respectively administered corresponding modeling drugs by oral gavage (sorafenib at 100 mg/kg and osimertinib at 10 mg/kg) once daily; and the blank control group was administered an equivalent volume of normal saline. After administration with the chemotherapeutic drugs for 2 weeks, the ointments containing the compound of formula (I) (at a compound content of 3%) used in Example 10 were respectively applied topically in the groups, or nicotinamide was orally administered (100 mg/kg) once daily continuously for 16 days.
Measurement of the degree of swelling of toes: The degree of swelling of hind limb toes of the mice was measured using a toe swelling tester (KW-7C, Nanjing Calvin Biotechnology Co., Ltd.) before administration with the modeling drugs, after administration with the modeling drugs for 2 weeks, and before sacrifice, respectively. Before measurement, ankle joints of hind feet of the mice were marked at same positions before administration, after administration for 2 weeks, and before sacrifice. During measurement, water was properly located at the same level as the marked positions, and numerical values were recorded after becoming stable.
Pathological staining of skin tissues: Skin tissue samples were selected from hind limb toes of the mice and placed in 4% paraformaldehyde for fixation at room temperature for 4 hours. Then, the tissues were taken out and rinsed with running water for several hours. The samples were subjected to dehydration treatment with 70%, 80%, and 90% ethanol solutions, followed by treatment with a mixed solution of equal amounts of absolute alcohol and xylene for 15 minutes, and then permeabilized twice with a xylene solution for 15 minutes each time until the samples became transparent. The samples were placed in a mixture of half xylene and half paraffin for soaking for 15 minutes, and then, paraffin I and paraffin II were added for wax penetration for one hour, respectively. After embedding with paraffin, the samples were sectioned, baked, dewaxed, and hydrated. Then, the hydrated sections were placed in a hematoxylin solution (ZSGB-BIO, article No. 23041001) for staining for 3 minutes, and a differentiation solution of hydrochloric acid in ethanol was added for differentiation for 15 seconds. After rinsing with water, a Scott bluing solution (Servicebio, article No. 20230801) was added for bluing for 15 seconds. After rinsing with running water, the sections were stained with an eosin solution (Solarbio, article No. 33535) for 3 minutes, rinsed with running water, dehydrated, permeabilized, sealed, and inspected under a microscope.
Immunohistochemical staining: After baking, dewaxing, and hydration, paraffin sections of skin tissues of hind limb toes of the mice were subjected to antigen retrieval using a 0.2 M citric acid buffer solution (containing 1.534 g of citric acid, 3.1 g of sodium citrate, and 100 mL of distilled water, pH 4.7). Endogenous […] was removed using 3% hydrogen peroxide (Shandong Annjet High-Tech Disinfection Technology Co., Ltd., article No. 20290902), and the sections were incubated at room temperature for 10 minutes and then fully rinsed with a PBS buffer solution (containing 8 g of NaCl, 0.2 g of KCl, 1.44 g of Na2HPO4, and 1 M HCl, pH 7.4). The sections were permeabilized with 0.5% Triton-X-100 (AmyJet Scientific, article No. A-CSH436-100 mL), respectively permeabilized with mouse anti-IL-1β and rabbit IL-8 for 10 minutes, and not permeabilized with rabbit anti-IL-6. […]

[3] = modeling drug alone by gavage once daily 30 days (Sorafenib 100, Erlotinib 70, Afatinib 50, Osimertinib 60 mg/kg), no test compound

Structure (SMILES): CNC(=O)c1cc(Oc2ccc(NC(=O)Nc3ccc(Cl)c(C(F)(F)F)c3)cc2)ccn1 [Sorafenib, sorafenib]
- successful modeling rates for the hand-foot skin reaction ([1]; SD rats, once daily by gavage: sorafenib 100, erlotinib 70, afatinib 50, osimertinib 60 mg/kg): 75%
- KRT1 and Loricrin in tissues ([1]; immunohistochemical staining, successfully modeled rats, modeling drug alone): significantly increased
- Incidence rate Left paw [1, 3]: 9/12 (75%)
- Incidence rate Right paw [1, 3]: 9/12 (75%)
- stratum corneum thickness of the paw plantar skin ([1]; successfully modeled rats, modeling drug alone, vs normal rats): significantly higher than that of normal rats
- cytokine IL-1β in the skin tissues of the hind limb toes of the mice ([2]; modeling drug oral 14 days, vs normal control group, p<0.05): significantly increased
- swelling of the hind limb toes of the mice ([2]; modeling drug oral, 14 days: sorafenib 100 mg/kg, osimertinib 10 mg/kg): significant swelling of the hind limb toes of the mice was caused
- epidermal layer and the stratum corneum in the skin tissues of the hind limb toes ([2]; modeling drug oral, 14 days: sorafenib, osimertinib, vs normal control group): significantly thickened
- skin of the hind limb toes of the mice (appearance) ([2]; modeling for 14 days: sorafenib 100 mg/kg, osimertinib 10 mg/kg oral gavage once daily, vs normal control group): obvious erythema and rhagades

Structure (SMILES): NC(=O)[C@H]1CCCc2c1[nH]c1ccc(Cl)cc21 [Compound of formula (I), (S)-6-chloro-2,3,4,9-tetrahydro-1H-carbazole-carboxamide]
- Incidence rate Left paw ([1]; Afatinib 50 mg/kg model, 1% ointment on left paw, once daily 30 days): 3/12 (25%)
- Incidence rate Left paw ([1]; Afatinib 50 mg/kg model, 3% ointment on left paw, once daily 30 days): 2/12 (17%)
- Incidence rate Left paw ([1]; Afatinib 50 mg/kg model, 10% ointment on left paw, once daily 30 days): 0/12 (0%)
- Incidence rate Right paw ([1]; Afatinib 50 mg/kg model, right paw with blank matrix ointment, 1% ointment on left paw, 30 days): 9/12 (75%)
- Incidence rate Right paw ([1]; Afatinib 50 mg/kg model, right paw with blank matrix ointment, 3% ointment on left paw, 30 days): 4/12 (33%)
- Incidence rate Right paw ([1]; Afatinib 50 mg/kg model, right paw with blank matrix ointment, 10% ointment on left paw, 30 days): 3/12 (25%)
- Incidence rate Left paw ([1]; Erlotinib 70 mg/kg model, 1% ointment on left paw, once daily 30 days): 3/12 (25%)
- Incidence rate Left paw ([1]; Erlotinib 70 mg/kg model, 3% ointment on left paw, once daily 30 days): 2/12 (17%)
- Incidence rate Left paw ([1]; Erlotinib 70 mg/kg model, 10% ointment on left paw, once daily 30 days): 1/12 (8%)
- Incidence rate Right paw ([1]; Erlotinib 70 mg/kg model, right paw with blank matrix ointment, 1% ointment on left paw, 30 days): 10/12 (83%)
- Incidence rate Right paw ([1]; Erlotinib 70 mg/kg model, right paw with blank matrix ointment, 3% ointment on left paw, 30 days): 5/12 (42%)
- Incidence rate Right paw ([1]; Erlotinib 70 mg/kg model, right paw with blank matrix ointment, 10% ointment on left paw, 30 days): 4/12 (33%)
- Incidence rate Left paw ([1]; Osimertinib 60 mg/kg model, 1% ointment on left paw, once daily 30 days): 2/12 (17%)
- Incidence rate Left paw ([1]; Osimertinib 60 mg/kg model, 3% ointment on left paw, once daily 30 days): 2/12 (17%)
- Incidence rate Left paw ([1]; Osimertinib 60 mg/kg model, 10% ointment on left paw, once daily 30 days): 0/12 (0%)
- Incidence rate Right paw ([1]; Osimertinib 60 mg/kg model, right paw with blank matrix ointment, 1% ointment on left paw, 30 days): 8/12 (67%)
- Incidence rate Right paw ([1]; Osimertinib 60 mg/kg model, right paw with blank matrix ointment, 3% ointment on left paw, 30 days): 4/12 (33%)
- Incidence rate Right paw ([1]; Osimertinib 60 mg/kg model, right paw with blank matrix ointment, 10% ointment on left paw, 30 days): 3/12 (25%)
- Incidence rate Left paw ([1]; Sorafenib 100 mg/kg model, 1% ointment on left paw, once daily 30 days): 2/12 (17%)
- Incidence rate Left paw ([1]; Sorafenib 100 mg/kg model, 3% ointment on left paw, once daily 30 days): 2/12 (17%)
- Incidence rate Left paw ([1]; Sorafenib 100 mg/kg model, 10% ointment on left paw, once daily 30 days): 0/12 (0%)
- Incidence rate Right paw ([1]; Sorafenib 100 mg/kg model, right paw with blank matrix ointment, 1% ointment on left paw, 30 days): 9/12 (75%)
- Incidence rate Right paw ([1]; Sorafenib 100 mg/kg model, right paw with blank matrix ointment, 3% ointment on left paw, 30 days): 4/12 (33%)
- Incidence rate Right paw ([1]; Sorafenib 100 mg/kg model, right paw with blank matrix ointment, 10% ointment on left paw, 30 days): 4/12 (33%)
- stratum corneum thickness of the paw plantar skin of the modeled rats ([1]; ointment on paw of modeled rats): effectively decrease
- incidence rate of hand-foot skin reaction at a drug application site ([1]; ointment, mass content of 1%): significantly decrease
- incidence rate of hand-foot skin reaction in all paws of the rats ([1]; ointment, mass content of 3% and 10%): significantly decrease
- formation of blisters in the epidermis and subepidermis caused by the modeling drugs ([1]; pathological scoring (FIG. 10)): effectively alleviate
- inflammatory cell infiltration in the dermis ([1]; pathological scoring (FIG. 10)): inhibit
- skin congestion phenomenon ([1]; pathological scoring (FIG. 10)): significantly alleviate
- formation of blisters in the epidermis and subepidermis caused by the modeling drugs ([1]; tissue staining (FIG. 9)): effectively alleviate
- inflammatory cell infiltration in the dermis ([1]; tissue staining (FIG. 9)): inhibit
- skin congestion phenomenon ([1]; tissue staining (FIG. 9)): significantly alleviate
- expression level of cytokine IL-1β in the skin tissues of the hind limb toes of the mice ([2]; osimertinib model): significantly decrease
- infiltration of inflammatory cells [2]: no infiltration of inflammatory cells observed
- thickening of the epidermal layer and the stratum corneum in the skin tissues [2]: effectively alleviate
- swelling of the toes caused by the modeling drugs [2]: effectively alleviate
- expression level of cytokine IL-1β in the skin tissues of the hind limb toes of the mice ([2]; sorafenib model): significantly decrease

Structure (SMILES): NC(=O)c1cccnc1 [Nicotinamide, nicotinamide]
- expression level of cytokine IL-1β in the skin tissues of the hind limb toes of the mice ([2]; osimertinib model): didn't have a significant impact
- infiltration of inflammatory cells [2]: infiltration of inflammatory cells still observed
- thickening of the epidermal layer and the stratum corneum in the skin tissues [2]: didn't significantly alleviate
- swelling of the toes caused by the modeling drugs [2]: not observed that oral administration of the nicotinamide at 100 mg/kg significantly alleviated the swelling
- expression level of cytokine IL-1β in the skin tissues of the hind limb toes of the mice ([2]; sorafenib model): didn't have a significant impact
